{"source": "patent US20230158005A1", "about": "(priority 2020, published 2023)", "system": "A/Washington/29/2009 (H1N1) H275Y", "format": "cell-based, influenza A virus", "note": "Where “and” joins values, the source holds several entries; their conditions need not be identical. Equal values may be shown once."}
{"smiles": "CCOC(=O)C1=C[C@@H](OC(CC)CC)[C@H](NC(C)=O)[C@@H](N)C1", "note": "[Oseltamivir, oseltamivir, reference compound]", "values": [{"measurement": "DIF (Difference from Control)", "result": -0.92, "unit": "log10TCID50/mL"}, {"measurement": "Virus titer AVG", "result": 3.92, "unit": "log10TCID50/mL"}, {"measurement": "Virus titer, replicates 1-3", "result": "3.75 log10TCID50/mL (2×) and 4.25 log10TCID50/mL"}]}
{"smiles": "CC1=C(COCCC(C)(C)C)C(=O)N(Nc2ccc(C(F)(F)F)c(Cl)n2)C1=O", "note": "[felezonexor, 3-[(3,3-dimethylbutoxy)methyl]-1-{[6-chloro-5-(trifluoromethyl) (2-pyridyl)]amino}-4-methylazoline-2,5-dione]", "values": [{"measurement": "Virus titer AVG", "result": "2.67 log10TCID50/mL and 3.83 log10TCID50/mL and 4.50 log10TCID50/mL"}, {"measurement": "Virus titer, replicates 1-3", "result": "2.75 log10TCID50/mL (2×) and 3.50 log10TCID50/mL and 4.50 log10TCID50/mL (3×) and 2.50 log10TCID50/mL and 3.75 log10TCID50/mL and 4.25 log10TCID50/mL"}]}
